Where “and” joins values, the source holds several entries; their conditions need not be identical. Identical values can stand only once.
Experiments:
Format in all cases: cell-based
Set-up in all cases: GPCRome screening signal at PTGIR / GPCRome screening signal at PTH1R / GPCRome screening signal at PTH2R / GPCRome screening signal at QRFP / GPCRome screening signal at RXFP2 / GPCRome screening signal at RXFP3 / GPCRome screening signal at RXFP4 / GPCRome screening signal at S1PR2 / GPCRome screening signal at S1PR3 / GPCRome screening signal at S1PR4 / GPCRome screening signal at S1PR5 / GPCRome screening signal at SCTR / GPCRome screening signal at SSTR2 / GPCRome screening signal at SSSTR / GPCRome screening signal at SSTR4 / GPCRome screening signal at SSTR5 / GPCRome screening signal at SUCNR1 / GPCRome screening signal at TA1 / GPCRome screening signal at TAAR2 / GPCRome screening signal at TAAR5 / GPCRome screening signal at TAAR6 / GPCRome screening signal at TAAR8 / GPCRome screening signal at TACR1 / GPCRome screening signal at TACR2 / GPCRome screening signal at TACR3 / GPCRome screening signal at TBXA2R / GPCRome screening signal at TSHR / GPCRome screening signal at UTS2R / GPCRome screening signal at VIPR2 / GPCRome screening signal at GPR68 no V2 Tail / GPCRome screening signal at GRM2 / GPCRome screening signal at GRM3: reference not given here
[1] = biological target: T1, 320 non-olfactory GPCRs (Homo sapiens, UniProt O95136); settings: receptor S1PR2
T1 construct: expressed in transfected cells; host or cells: HTLA cells

[2] = biological target: T2, 320 non-olfactory GPCRs (Homo sapiens, UniProt Q96RI9); settings: receptor TAAR9
T2 construct: expressed in transfected cells; host or cells: HTLA cells

[3] = biological target: T3, 320 non-olfactory GPCRs (Homo sapiens, UniProt P41587); settings: receptor VIPR2
T3 construct: expressed in transfected cells; host or cells: HTLA cells

[4] = biological target: T4, 320 non-olfactory GPCRs (Homo sapiens, UniProt Q9P1P5); settings: receptor TAAR2
T4 construct: expressed in transfected cells; host or cells: HTLA cells

[5] = Fig_5f, single replicate values
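Throughout, for GPCRome agonism screen response: fold over basal response of each receptor without drug.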

T1 sequence (O95136 whole entry): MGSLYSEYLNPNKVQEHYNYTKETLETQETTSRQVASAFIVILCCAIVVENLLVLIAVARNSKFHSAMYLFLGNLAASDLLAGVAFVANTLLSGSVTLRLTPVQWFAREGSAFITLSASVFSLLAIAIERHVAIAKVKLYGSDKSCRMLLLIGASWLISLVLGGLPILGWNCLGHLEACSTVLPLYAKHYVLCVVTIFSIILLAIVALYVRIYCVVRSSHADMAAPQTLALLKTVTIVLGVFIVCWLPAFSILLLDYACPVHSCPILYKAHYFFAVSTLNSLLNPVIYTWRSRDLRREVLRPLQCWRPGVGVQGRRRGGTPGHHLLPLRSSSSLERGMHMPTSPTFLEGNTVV
T4 sequence (Q9P1P5 whole entry): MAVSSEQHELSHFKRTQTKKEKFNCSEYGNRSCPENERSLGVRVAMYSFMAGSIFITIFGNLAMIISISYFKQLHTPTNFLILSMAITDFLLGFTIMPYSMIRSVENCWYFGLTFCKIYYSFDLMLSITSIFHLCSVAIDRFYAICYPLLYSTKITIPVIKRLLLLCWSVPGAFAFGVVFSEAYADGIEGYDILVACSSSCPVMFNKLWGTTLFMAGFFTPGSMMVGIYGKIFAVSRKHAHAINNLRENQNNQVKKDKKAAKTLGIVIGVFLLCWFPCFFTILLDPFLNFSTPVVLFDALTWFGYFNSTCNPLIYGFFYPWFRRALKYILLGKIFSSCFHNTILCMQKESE
T2 sequence (Q96RI9 whole entry): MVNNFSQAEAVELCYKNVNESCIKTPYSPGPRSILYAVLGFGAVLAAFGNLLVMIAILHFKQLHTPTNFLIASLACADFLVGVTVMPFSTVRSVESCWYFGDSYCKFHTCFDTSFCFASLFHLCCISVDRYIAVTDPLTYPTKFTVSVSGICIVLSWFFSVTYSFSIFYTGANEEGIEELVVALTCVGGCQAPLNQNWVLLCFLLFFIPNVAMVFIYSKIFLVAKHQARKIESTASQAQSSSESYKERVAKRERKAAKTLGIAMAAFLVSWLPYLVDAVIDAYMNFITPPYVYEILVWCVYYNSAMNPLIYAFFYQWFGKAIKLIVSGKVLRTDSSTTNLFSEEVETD
T3 sequence (P41587 24-438): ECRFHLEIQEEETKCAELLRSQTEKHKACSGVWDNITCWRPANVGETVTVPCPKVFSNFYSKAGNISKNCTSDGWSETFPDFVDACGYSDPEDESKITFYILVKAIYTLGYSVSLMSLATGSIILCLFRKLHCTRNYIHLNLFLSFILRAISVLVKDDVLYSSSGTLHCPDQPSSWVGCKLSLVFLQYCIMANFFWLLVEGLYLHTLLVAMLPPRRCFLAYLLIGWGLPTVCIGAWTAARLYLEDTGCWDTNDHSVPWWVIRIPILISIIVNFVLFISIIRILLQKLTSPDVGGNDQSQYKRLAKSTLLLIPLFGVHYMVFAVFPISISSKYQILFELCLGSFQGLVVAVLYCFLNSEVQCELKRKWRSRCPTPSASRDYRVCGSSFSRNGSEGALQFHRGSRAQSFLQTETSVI

Compound: CCOc1ccccc1CCC(C)NCC1(O)CCCCC1.Cl (racemic) [Fig_5f]
- GPCRome screening signal at S1PR2 [1, 5]: 2.447 and 1.17 and 1.142 and 1.029
- GPCRome screening signal at TAAR9 [2, 5]: 1.0253 and 1.396 and 1.2735 and 0.8423
- GPCRome screening signal at VIPR2 [3, 5]: 0.8302 and 1.005 and 0.9541 and 0.5143
- GPCRome screening signal at TAAR2 [4, 5]: 1.515 and 0.6858 and 1.3165 and 0.7903

Compound: CCOc1cccc2cc(C(C)NCC3(O)CCCCC3)oc12 (centres unmarked) [O4LE6]
- GPCRome agonism screen response ([1]; replicate values, Fig_4g): 2.111 and 0.9213 and 3.313 and 1.2731
- GPCRome agonism screen response ([2]; replicate values, Fig_4g): 0.8369 and 1.036 and 0.7156 and 1.104
- GPCRome agonism screen response ([3]; replicate values, Fig_4g): 0.366 and 1.433 and 1.331 and 0.8644
- GPCRome agonism screen response ([4]; replicate values, Fig_4g): 2.656 and 0.9121 and 0.6733 and 0.6661

— publication PMC7044277 (Nature Communications, 2020)
